The text below walks through data of patent US11471446B2, “Compounds for treatment of hypoproliferative disorders” (LU LICENSE AB, priority 2015, dated 2022).

SMILES strings stand for the structures. “Also recorded” adds a separate entry of the source. Structures can show the parent of a compound that is named as a salt.

In assay [1] the test system is RPS19-deficient murine erythroid progenitor cells. Nature of the assay: Phenotypic assay for rescued cell proliferation of murine RPS19-deficient erythroid progenitor cells. The assay is classed as cell-based, mouse. The settings on record: for Emax / EC50: Mus musculus, Erythroid progenitor cell; for Emax: maximal proliferation rescue, read-out: ECMAX (% rescue); for EC50: proliferation rescue of RPS19-deficient erythroid progenitor cells; for rescue of proliferation (in words): RPS19-deficient murine erythroid progenitor cells. From the text: Correction of reduced proliferative capacity of RPS19-deficient erythroid progenitors was used as readout in a phenotypic screen for novel drug candidates.

For assay [2] the following is noted: known from Saito et al.; cited from earlier work.
Assay [3] has as its target T1, CDK19 (Homo sapiens (Human), UniProt Q9BWU1). Kind of assay: 18 selected kinases panel, DiscoveRx LeadHunter Discovery Services. The settings on record: tested on 18 selected kinases. It counts as binding. The protocol: DBA-4 was tested on 18 selected kinases by DiscoveRx LeadHunter™ Discovery Services.
Assay [4] relates to RPS19-deficient erythroid progenitor cells. Kind of assay: c-kit FACS, maintenance of c-kit+ progenitor cells in culture of RPS19-deficient erythroid progenitors. The assay is classed as cell-based, mouse. The source says: FIG. 8: The selective CDK8/CDK19 inhibitors DBA-7 and DBA-8 rescue the loss of c-kit+ progenitor cell observed in in vitro culture of RPS19-deficient erythroid progenitors.
(§1) In addition, the selective CDK8/CDK19 inhibitors DBA-7 and DBA-8 both rescued RPS19-deficient erythroid progenitor cells from apoptosis (FIG. 7) and loss of kit+ progenitor cell maintenance in culture (FIG. 8).

In assay [5] the test system is DBA patient CD34+ cells. Kind of assay: Erythroid maturation of DBA patient cells in vitro (CD71/CD235a flow cytometry). The settings on record: 200 nM; day 8 of culture; compared to DMSO. The assay is classed as cell-based, human. The protocol: Cells were cultured in the same conditions as in FIG. 9 and analysed by flow cytometry at day 8 of culture. CD71 is a positive marker for early erythroid progenitors while CD71 and CD235a positive cells are mature erythroid precursors.
(§2) To confirm that CDK8/CDK19 inhibitors rescue erythropoiesis also in human DBA patient cells, CD34+ cells were isolated from healthy donors and DBA patients. CD34+ cells were cultured in conditions supporting expansion of erythroid progenitors and precursors. Three CDK8/CDK19 inhibitors and vehicle control were added to the cultures.
(Flow cytometry measures light scatter and fluorescence of single cells or particles in a stream.)

In assay [6] the test system is DBA patient CD34+ cells. Kind of assay: Proliferation of erythroid DBA patient CD34+ cells in vitro. The assay is classed as cell-based, human. The settings on record: 200 nM; day 14 of culture. As to the method:
5000 peripheral blood CD34+ cells from healthy donors or DBA patients were plated in serum free medium containing human stem cell factor and Epo to support expansion of erythroid progenitors and precursor cells. […] All three CDK8-inhibitors promote proliferation of DBA patient cells.
as §2

In assay [7] the test system is RPS19-deficient erythroid progenitor cells. Kind of assay: 7-AAD FACS, cell survival of RPS19-deficient erythroid progenitors. It counts as cell-based, mouse.
From the text: as §1

The target of assay [8] is T1, CDK19. Kind of assay: KinomeScan (DiscoveRx) on 468 kinases. It counts as binding. The settings on record: 0.5 μM. The source says:
(§3) Arrows point at CDK8 and CDK19.
(§4) In particular, a compound may be considered to be a CDK8 and/or CDK19 inhibitor if it can inhibit CDK8 and/or CDK19 at a concentration as defined herein above using the KinomeScan assay.

The next assay concerns the target CDK8 (Homo sapiens (Human), UniProt P49336). Nature of the assay: KinomeScan (DiscoveRx) on 468 kinases. The assay is classed as binding. The settings on record: 0.5 μM.
From the text: as §3, §4

In a further assay the test system is RPS19-deficient mice. Kind of assay: Reticulocyte counts in RPS19-deficient mouse model for DBA. The settings on record: oral 10 mg/kg every 12 hours, 5 doses; peripheral blood 48 hours after last treatment. The assay is classed as in vivo. The protocol:
Treatment was stopped after 5 doses. 48 hours after last treatment peripheral blood was analysed for reticulocyte counts, which reflects the ongoing production of erythrocytes.
Treatment is stopped after 5 doses. 48 hours after last treatment peripheral blood is analysed for reticulocyte counts, which reflects the ongoing production of erythrocytes. Reticulocyte counts is rescued in RPS19-deficient mice treated with the selective CDK8/CDK19 inhibitors tested. In addition to rescue of reticulocyte and haemoglobin levels, other effects of the tested CDK8/CDK19 inhibitors are determined, in particular their ability to rescue bone marrow hypocellularity, to promote hemapopoetic stem and progenitor development, as well as cell cycle arrest and apoptosis.

T1 sequence (Q9BWU1 whole entry): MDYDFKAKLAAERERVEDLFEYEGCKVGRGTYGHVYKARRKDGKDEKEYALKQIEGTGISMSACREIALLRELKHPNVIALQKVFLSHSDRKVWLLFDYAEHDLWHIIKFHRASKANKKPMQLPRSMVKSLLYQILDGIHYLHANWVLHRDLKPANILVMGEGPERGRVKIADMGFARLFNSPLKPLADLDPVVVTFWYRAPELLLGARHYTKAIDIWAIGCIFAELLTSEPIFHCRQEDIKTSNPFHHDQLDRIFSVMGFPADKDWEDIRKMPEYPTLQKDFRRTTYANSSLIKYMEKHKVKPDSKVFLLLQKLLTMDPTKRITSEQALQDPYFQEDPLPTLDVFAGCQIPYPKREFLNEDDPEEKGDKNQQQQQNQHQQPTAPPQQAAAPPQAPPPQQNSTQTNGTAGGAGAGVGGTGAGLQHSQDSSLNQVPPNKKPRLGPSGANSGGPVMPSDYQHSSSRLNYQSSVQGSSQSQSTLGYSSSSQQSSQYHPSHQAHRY
Chain of CDK8 (P49336 whole entry): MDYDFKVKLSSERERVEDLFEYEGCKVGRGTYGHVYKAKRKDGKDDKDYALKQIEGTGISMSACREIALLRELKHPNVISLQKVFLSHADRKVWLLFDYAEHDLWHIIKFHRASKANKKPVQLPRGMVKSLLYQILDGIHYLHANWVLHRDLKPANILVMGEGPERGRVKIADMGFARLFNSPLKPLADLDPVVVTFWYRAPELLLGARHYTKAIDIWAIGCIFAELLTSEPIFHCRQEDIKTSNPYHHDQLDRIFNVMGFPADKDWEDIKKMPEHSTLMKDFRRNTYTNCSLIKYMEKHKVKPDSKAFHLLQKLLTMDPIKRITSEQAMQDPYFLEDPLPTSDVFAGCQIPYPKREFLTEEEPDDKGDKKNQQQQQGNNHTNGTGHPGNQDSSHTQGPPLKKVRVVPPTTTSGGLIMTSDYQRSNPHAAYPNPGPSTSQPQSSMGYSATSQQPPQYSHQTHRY

In the case of `CN(C)c1ccnc2sc(C(N)=O)c(N)c12` [DBA-1], in [1], the Emax was determined as 25%, a half-maximal effect (EC50) was put at 1200 nM and the “rescue of proliferation (in words)” value is given as “partial dose-dependent rescue of proliferation; also recorded: potent”. Also, the bone anabolic effect result in assay [2] is reported as “effect as bone anabolic agents”.
Turning to `COc1ccc(-c2cc(C3CC3)nc3sc(C(N)=O)c(N)c23)cc1` [DBA-2], in assay [1], the Emax worked out at 45%, the EC50 turned out to be 15000 nM and the “rescue of proliferation (in words)” value is “potent”.
Consider `CCc1nc2sc(C(N)=O)c(N)c2c2c1CCCC2` [DBA-3], for which, in assay [1], the Emax turned out to be 38%, the EC50 was determined as 11000 nM and the “rescue of proliferation (in words)” value is “potent”.
For the molecule `COCc1cc(C)nc2sc(C(N)=O)c(N)c12` [DBA-4], at CDK19 [3], the “inhibition of CDK19” value is given as “inhibited”. In assay [1], the Emax was 28%, the EC50 turned out to be 2800 nM and the “rescue of proliferation (in words)” value was “potent”.
As to `Cc1c(C(N)=O)sc2nc(C(F)(F)F)cc(N)c12` [DBA-5], in assay [1], the Emax is 21%, the EC50 came to 1700 nM and the “rescue of proliferation (in words)” value is “potent”.
In the case of `NC(=O)c1sc2nccc(N3CCCN(c4ccccc4)CC3)c2c1N` [DBA-6], in assay [1], the Emax was found to be 30% and the “rescue of proliferation (in words)” value is given as “partial dose-dependent rescue of proliferation; also recorded: potent”. Besides, in assay [2], the bone anabolic effect entry is on record as “effect as bone anabolic agents”.
For the molecule `CN(C)C(=O)Cc1ccc(N2CCCN(c3ccnc4sc(C(N)=O)c(N)c34)CC2)cc1` [DBA-7], in assay [4], the “rescue of loss of kit+ progenitor cell maintenance in culture” value is reported as “rescued”. In assay [1], the Emax stood at 82%, the EC50 was 25 nM and the “rescue of proliferation (in words)” value is on record as “potent; also recorded: partial dose-dependent rescue of proliferation”. The bone anabolic effect result in assay [2] was “effect as bone anabolic agents”. In addition, in the assay with DBA patient CD34+ cells [5], the “erythroid maturation of DBA patient cells (CD71, CD235a)” value (from here on “erythroid maturation”) is “increase erythroid maturation”. In addition, the “proliferation of DBA patient cells (cell counts)” value (“proliferation … (cell counts)” for short) in the assay with DBA patient CD34+ cells [6] is on record as “rescue proliferation”. Moreover, the “rescue from apoptosis (7-AAD)” value in assay [7] is listed as “rescued”. Besides, at CDK19 [8], the “inhibition of CDK19” value is “very selectively inhibited”. In addition, on CDK8, the “inhibition of CDK8” value is listed as “very selectively inhibited”.
As for `N#Cc1ccc2ncnc(NCCc3ccccc3)c2c1` [DBA-8, reference compound], the “rescue of loss of kit+ progenitor cell maintenance in culture” value in [4] is “rescued”. Also, in [1], the Emax was 80%, the EC50 worked out at 500 nM and the “rescue of proliferation (in words)” value is recorded as “partial dose-dependent rescue of proliferation”. Further, the “rescue from apoptosis (7-AAD)” value in [7] is on record as “rescued”.
Turning to `CN1CCN(C(=O)c2ccc3cc(CCNc4ncnc5ccc(C#N)cc45)ccc3c2)CC1` [DBA-9], the Emax in assay [1] was 60%. Also, the “erythroid maturation” value in the assay on DBA patient CD34+ cells [5] is “increase erythroid maturation”. In the assay on RPS19-deficient mice, the reticulocyte counts result is “rescued”. The “proliferation … (cell counts)” value with DBA patient CD34+ cells [6] is recorded as “rescue proliferation”.
On to `Cc1c(Br)c(Br)c2c3c1nc(N1CCNCC1)n3CCC2` [DBA-10, 7,8-dibromo-9-methyl-2-(piperazin-1-yl)-5,6-dihydro-4H-imidazo[4,5,1-ij]quinoline hydrochloride, reference compound], for which, in assay [1], the Emax came out at 60% and it took 20 nM to reach a half-maximal effect (EC50). Besides, the “erythroid maturation” value with DBA patient CD34+ cells [5] was “increase erythroid maturation”. In addition, the “proliferation … (cell counts)” value in the assay with DBA patient CD34+ cells [6] was “rescue proliferation”.
With `Cn1cc(-c2ccc(-c3cncc(Cl)c3N3CCC4(CCNC4=O)CC3)cc2)cn1` [DBA-11, 8-[3-chloro-5-[4-(1-methyl-1H-pyrazol-4-yl)phenyl]-4-pyridinyl]-2,8-diazaspiro[4.5]decan-1-one, reference compound], in assay [1], the Emax came to 50% and it took 20 nM to reach a half-maximal effect (EC50).

As a reminder, the EC50 is the concentration that produces a half-maximal response. Higher therefore signals lower potency in that assay.
